Values after ≈ are worked out from the molar mass of the structure shown. Like-named read-outs stand apart in the source and are kept apart here.
How the values were obtained:
Type in all cases: cell-based
K. pneumoniae 1705949 = experiment: MIC, microtiter-based liquid assay (CLSI); conditions: Klebsiella pneumoniae, MDR strain
[1] = tested on: E. faecium A6349 VanA + LNZ-R; experiment: MIC, microtiter-based liquid assay (CLSI); conditions: Enterococcus faecium
[2] = tested on: S. pneumoniae 02J1175 Mef(A); experiment: MIC, microtiter-based liquid assay (CLSI); conditions: Streptococcus pneumoniae
E. coli CAG12184 TolC = experiment: MIC, microtiter-based liquid assay (CLSI); conditions: Escherichia coli, CAG12184TOLC
P. aeruginosa ATCC27853 = experiment: MIC, microtiter-based liquid assay (CLSI); conditions: Pseudomonas aeruginosa
B. mallei = experiment: microbe, parasite or virus in culture; conditions: Burkholderia mallei; for MIC50: read-out: B. mallei MIC50; for MIC90: read-out: B. mallei MIC90; for MIC: read-out: B. mallei MIC Range
B. pseudomallei = experiment: microbe, parasite or virus in culture; conditions: Burkholderia pseudomallei; for MIC50: read-out: B. pseudomallei MIC50; for MIC90: read-out: B. pseudomallei MIC90; for MIC: read-out: B. pseudomallei MIC Range
B. anthracis = experiment: microbe, parasite or virus in culture; conditions: Bacillus anthracis; for MIC50: read-out: B. anthracis MIC50; for MIC90: read-out: B. anthracis MIC90; for MIC: read-out: B. anthracis MIC Range
P. aeruginosa 1705886 = experiment: MIC, microtiter-based liquid assay (CLSI); conditions: Pseudomonas aeruginosa
Y. pestis = experiment: microbe, parasite or virus in culture; conditions: Yersinia pestis; for MIC50: read-out: Y. pestis MIC50; for MIC90: read-out: Y. pestis MIC90; for MIC: read-out: Y. pestis MIC Range
S. aureus 11540 MRSA = experiment: MIC, microtiter-based liquid assay (CLSI); conditions: Staphylococcus aureus
E. coli 1705878 = experiment: MIC, microtiter-based liquid assay (CLSI); conditions: Escherichia coli, MDR strain
E. coli ATCC25922 = experiment: MIC, microtiter-based liquid assay (CLSI); conditions: Escherichia coli
A. baumannii 1705943 = experiment: MIC, microtiter-based liquid assay (CLSI); conditions: Acinetobacter baumannii
P. aeruginosa 1705904 = experiment: MIC, microtiter-based liquid assay (CLSI); conditions: Pseudomonas aeruginosa, MDR strain
E. coli MG1655 parent = experiment: MIC, microtiter-based liquid assay (CLSI); conditions: Escherichia coli
A. baumannii 1705936 = experiment: MIC, microtiter-based liquid assay (CLSI); conditions: Acinetobacter baumannii, MDR strain
K. pneumoniae 1705966 = experiment: MIC, microtiter-based liquid assay (CLSI); conditions: Klebsiella pneumoniae
F. tularensis = experiment: microbe, parasite or virus in culture; conditions: Francisella tularensis; for MIC50: read-out: F. tularensis MIC50; for MIC90: read-out: F. tularensis MIC90; for MIC: read-out: F. tularensis MIC Range
[3] = ATCC25922, read-out: MIC E. coli ATCC25922 + 50% HS
[4] = ATCC25922, read-out: MIC E. coli ATCC25922

| SMILES | MIC (K. pneumoniae 1705949) [µg/mL] | MIC [1] [µg/mL] | MIC [2] [µg/mL] | MIC (E. coli CAG12184 TolC) [µg/mL] | MIC (P. aeruginosa ATCC27853) [µg/mL] | MIC50 (B. mallei) [µg/mL] | MIC90 (B. mallei) [µg/mL] | MIC (B. mallei) [µg/mL] | MIC50 (B. pseudomallei) [µg/mL] | MIC90 (B. pseudomallei) [µg/mL] | MIC (B. pseudomallei) [µg/mL] | MIC50 (B. anthracis) [µg/mL] | MIC90 (B. anthracis) [µg/mL] | MIC (B. anthracis) [µg/mL] | MIC (P. aeruginosa 1705886) [µg/mL] | MIC50 (Y. pestis) [µg/mL] | MIC90 (Y. pestis) [µg/mL] | MIC (Y. pestis) [µg/mL] | MIC (S. aureus 11540 MRSA) [µg/mL] | MIC (E. coli 1705878) [µg/mL] | also measured |
| --- | --- | --- | --- | --- | --- | --- | --- | --- | --- | --- | --- | --- | --- | --- | --- | --- | --- | --- | --- | --- | --- |
| C[C@H](N)CCCc1cc(-c2cc3cn(-c4ccc([C@H](C)NCCCNC(=N)N)cc4)c(=O)nc3[nH]2)c(F)c(Cl)c1F [Compound 12] | 0.25 (≈ 0.427 µM) | 0.5 | 0.125 (≈ 0.214 µM) | 0.125 (≈ 0.214 µM) | 4 (≈ 6.84 µM) | ≤ 0.03 | 0.12 (≈ 0.205 µM) | 0.03 to 0.25 (≈ 0.0513 to 0.427 µM) | 4 (≈ 6.84 µM) | 8 (≈ 13.7 µM) | 0.5 to 16 (≈ 0.855 to 27.3 µM) | 0.06 (≈ 0.103 µM) | 0.12 (≈ 0.205 µM) | 0.03 to 0.25 (≈ 0.0513 to 0.427 µM) | 2 (≈ 3.42 µM) | 0.12 (≈ 0.205 µM) | 0.25 (≈ 0.427 µM) | 0.03 to 0.5 (≈ 0.0513 to 0.855 µM) | 0.125 (≈ 0.214 µM) | 0.25 (≈ 0.427 µM) | MIC (E. coli ATCC25922; [3]): 0.5 µg/mL; MIC (E. coli ATCC25922; [4]): 0.125 µg/mL (≈ 0.214 µM); MIC (A. baumannii 1705943): 0.25 µg/mL (≈ 0.427 µM); MIC (P. aeruginosa 1705904): 4 µg/mL (≈ 6.84 µM); MIC (E. coli MG1655 parent): 0.25 µg/mL (≈ 0.427 µM); MIC (A. baumannii 1705936): 2 µg/mL (≈ 3.42 µM); MIC (K. pneumoniae 1705966): 0.125 µg/mL (≈ 0.214 µM); MIC50 (F. tularensis): ≤ 0.03 µg/mL; MIC90 (F. tularensis): ≤ 0.03 µg/mL; MIC (F. tularensis): 0.03 to 1 µg/mL (≈ 0.0513 to 1.71 µM) |
| C[C@H](N)CCCc1cc(-c2cc3cn(-c4ccc(CNCCCNC(=N)N)cc4)c(=O)nc3[nH]2)c(F)c(Cl)c1F [Compound 13] | 0.5 (≈ 0.876 µM) | 0.5 | 0.25 (≈ 0.438 µM) | 0.25 (≈ 0.438 µM) | 2 (≈ 3.5 µM) | ≤ 0.03 | 0.06 (≈ 0.105 µM) | 0.03 to 0.25 (≈ 0.0525 to 0.438 µM) | 4 (≈ 7 µM) | 8 (≈ 14 µM) | 0.5 to 16 (≈ 0.876 to 28 µM) | ≤ 0.03 | 0.12 (≈ 0.21 µM) | 0.03 to 0.12 (≈ 0.0525 to 0.21 µM) | 2 (≈ 3.5 µM) | 0.06 (≈ 0.105 µM) | 0.12 (≈ 0.21 µM) | 0.03 to 0.25 (≈ 0.0525 to 0.438 µM) | 0.25 (≈ 0.438 µM) | 0.25 (≈ 0.438 µM) | MIC (E. coli ATCC25922; [3]): 0.25 µg/mL; MIC (E. coli ATCC25922; [4]): 0.25 µg/mL (≈ 0.438 µM); MIC (A. baumannii 1705943): 0.25 µg/mL (≈ 0.438 µM); MIC (P. aeruginosa 1705904): 4 µg/mL (≈ 7 µM); MIC (E. coli MG1655 parent): 0.25 µg/mL (≈ 0.438 µM); MIC (A. baumannii 1705936): 4 µg/mL (≈ 7 µM); MIC (K. pneumoniae 1705966): 0.25 µg/mL (≈ 0.438 µM); MIC50 (F. tularensis): ≤ 0.03 µg/mL; MIC90 (F. tularensis): ≤ 0.03 µg/mL; MIC (F. tularensis): 0.03 to 0.5 µg/mL (≈ 0.0525 to 0.876 µM) |
| C=CCC[C@H](NCCCNC(=N)N)c1ccc(-n2cc3cc(-c4cc(CCC[C@H](C)N)cc(Cl)c4F)[nH]c3nc2=O)cc1 [Compound 14] | 1 (≈ 1.65 µM) | 1 | 0.5 (≈ 0.823 µM) | 0.5 (≈ 0.823 µM) | 4 (≈ 6.59 µM) | ≤ 0.03 | 0.25 (≈ 0.412 µM) | 0.03 to 0.5 (≈ 0.0494 to 0.823 µM) | 2 (≈ 3.29 µM) | 4 (≈ 6.59 µM) | 0.25 to 8 (≈ 0.412 to 13.2 µM) | 0.25 (≈ 0.412 µM) | 0.25 (≈ 0.412 µM) | 0.03 to 0.5 (≈ 0.0494 to 0.823 µM) | 2 (≈ 3.29 µM) | 0.12 (≈ 0.198 µM) | 0.5 (≈ 0.823 µM) | 0.03 to 0.5 (≈ 0.0494 to 0.823 µM) | 0.5 (≈ 0.823 µM) | 1 (≈ 1.65 µM) | MIC (E. coli ATCC25922; [3]): 2 µg/mL; MIC (E. coli ATCC25922; [4]): 0.5 µg/mL (≈ 0.823 µM); MIC (A. baumannii 1705943): 0.5 µg/mL (≈ 0.823 µM); MIC (P. aeruginosa 1705904): 4 µg/mL (≈ 6.59 µM); MIC (E. coli MG1655 parent): 1 µg/mL (≈ 1.65 µM); MIC (A. baumannii 1705936): 0.5 µg/mL (≈ 0.823 µM); MIC (K. pneumoniae 1705966): 0.5 µg/mL (≈ 0.823 µM); MIC50 (F. tularensis): 0.06 µg/mL (≈ 0.0988 µM); MIC90 (F. tularensis): 0.25 µg/mL (≈ 0.412 µM); MIC (F. tularensis): 0.03 to 2 µg/mL (≈ 0.0494 to 3.29 µM) |
| C[C@H](N)CCCc1cc(Cl)c(F)c(-c2cc3cn(-c4ccc([C@H](CCNc5nccs5)NCCCNC(=N)N)cc4)c(=O)nc3[nH]2)c1 [Compound 15] | 1 (≈ 1.47 µM) | 2 | 0.25 (≈ 0.368 µM) | 0.25 (≈ 0.368 µM) | 8 (≈ 11.8 µM) | 0.06 (≈ 0.0883 µM) | 0.25 (≈ 0.368 µM) | 0.03 to 0.5 (≈ 0.0442 to 0.736 µM) | 8 (≈ 11.8 µM) | 16 (≈ 23.6 µM) | 4 to 32 (≈ 5.89 to 47.1 µM) | 0.12 (≈ 0.177 µM) | 0.12 (≈ 0.177 µM) | 0.03 to 0.25 (≈ 0.0442 to 0.368 µM) | 4 (≈ 5.89 µM) | 0.5 (≈ 0.736 µM) | 1 (≈ 1.47 µM) | 0.06 to 1 (≈ 0.0883 to 1.47 µM) | 0.5 (≈ 0.736 µM) | 2 (≈ 2.94 µM) | MIC (E. coli ATCC25922; [3]): 0.5 µg/mL; MIC (E. coli ATCC25922; [4]): 0.5 µg/mL (≈ 0.736 µM); MIC (A. baumannii 1705943): 0.5 µg/mL (≈ 0.736 µM); MIC (P. aeruginosa 1705904): 8 µg/mL (≈ 11.8 µM); MIC (E. coli MG1655 parent): 1 µg/mL (≈ 1.47 µM); MIC (A. baumannii 1705936): 1 µg/mL (≈ 1.47 µM); MIC (K. pneumoniae 1705966): 0.25 µg/mL (≈ 0.368 µM); MIC50 (F. tularensis): 0.06 µg/mL (≈ 0.0883 µM); MIC90 (F. tularensis): 0.25 µg/mL (≈ 0.368 µM); MIC (F. tularensis): 0.03 to 2 µg/mL (≈ 0.0442 to 2.94 µM) |
